Laboratory results from patent US9505709B2, “Compositions and methods relating to ionic salts of peptides” (Thetis Pharmaceuticals LLC, priority 2014, dated 2016).

What was measured:
[1] = Stability analysis by 1H NMR of samples exposed to air and light; details: ambient temperature
Procedure: Stability analysis was performed using 1H NMR (400 MHz) with acetic acid-d4 at various time point (typically days 1, 14, 30 and 60) using samples exposed to air and light at ambient temperature (clear vials with no caps).

[2] = tested on: Balb/C mice; assay: Ocular irritation after topical dosing to the cornea (hyperemia, squinting, discharge, lid swelling); type: in vivo; details: for Hyperemia: 3 μL drop in each eye four times daily for 3 days
Procedure: In an embodiment where the ophthalmic formulation is an aqueous formulation, it has been determined in mice that certain formulations can be administered to the surface of the eye without producing irritation that would make them unsuitable for such application. Irritation parameters of TP-211-1, TP-212-1, TP-311-1 and TP-312-1 related to hyperemia, squinting, and discharge were determined in Balb/C mice. Mice were dosed topically to the cornea using a calibrated micropipette, with a 3 μL drop of treatment in each eye four times daily for 3 consecutive days at various concentrations.
TP-211-1 is Lysyl-lysine EPA. TP-212-1 is Lysyl-lysine bis-EPA. TP-311-1 is Lysyl-lysine DHA. TP-312-1 is Lysyl-lysine bis-DHA. The study drugs were prepared using phosphate buffered saline (PBS) to reach target concentrations ranging from 0.1% to 1.0%.
The animals were monitored for scratching at the eye or any other abnormal behavior post-dose. Ocular exams were conducted on Days 1 and 3 with use of a Micron III camera system to take high resolution videos of the right eye of each animal Clinical signs including but not limited to hyperemia, discharge, lid swelling, and squinting were evaluated by trained personnel who was masked as to group assignment. Each clinical sign was graded on a scale of 0-4, with the exception of lid swelling which was graded on a scale of 0-2. Scores were averaged and are expressed as the mean±SEM for each group. Statistical significance was assessed between the treatment arms and the vehicle group. Any significance is noted by asterisks (*=p<0.05, **=p<0.01, ***=p<0.001).

[3] = Oral pharmacokinetics (oral gavage), plasma free EPA or free DHA; type: in vivo, Sprague-Dawley rats; details: rat
Procedure: Experiments via Oral Gavage: Oral pharmacokinetic parameters of TP-212 (Lysyl-Lysine Bis-EPA), TP-312 (Lysyl-Lysine Bis-DHA), EPA-EE, EPA FFA and DHA FFA were determined in Sprague-Dawley rats. EPA-EE is 97% pure ethyl ester form of eicosapentaenoic acid. It is the principal polyunsaturated fatty acid in Vascepa, an Omega-3 compound approved in the U.S. for the treatment of severe hypertriglyceridemia. EPA FFA is 97% pure free fatty acid form of eicosapentaenoic acid and DHA FFA is 98% pure free fatty acid DHA. EPA FFA and DHA FFA are the two principal poly-unsaturated fatty acids in Epanova, an Omega-3 compound approved in the U.S. for the treatment of severe hypertriglyceridemia. The subject drugs were administered by oral gavage as an aqueous solution in de-ionized water to 6 Sprague-Dawley rats per group (3 males and 3 females). Rats were dosed at 40 mg/kg. Blood samples were obtained from each rat by jugular vein catheter. Samples were collected at pre-dose and at 0.25, 0.5, 1, 2, 4, 8, 12 and 18 hours post dose. Blood samples were centrifuged to separate red blood cells and the resulting plasma samples were analyzed for free EPA or free DHA. Free EPA or […] extracted from rat plasma with hexane at acidic condition without hydrolysis. Detection was by MS-MS monitoring of negative ion for EPA or DHA. Calculated pharmacokinetic values are mean values from 6 rats for each study drug.
(§1) For all figures and tables, the data are adjusted as follows for comparative purposes. First, the actual plasma levels are baseline adjusted. Thus, for each study arm, the pre-dose level (time=0) is subtracted from the actual plasma levels at each time point, with negative values adjusted to zero. Second, these baseline adjusted values are further adjusted to be molar dose equivalent on a comparative basis among the study arms with respect to EPA or DHA payload (i.e., as if equal amounts of free fatty acid EPA or DHA are administered in each study arm).

[4] = Intravenous injection pharmacokinetics, plasma free EPA or free DHA; type: in vivo, Sprague-Dawley rats; details: rat
Procedure: Experiments via Intravenous Injection: TP-212 and TP-312 were administered by intravenous injection (20 mg/kg) to Sprague-Dawley rats (n=6/group—3 male and 3 female), and plasma was obtained from serial blood samples taken from each animal at scheduled times ([…]). Blood samples were centrifuged to separate red blood cells and the resulting plasma samples were analyzed for free EPA or free DHA. Free EPA or free DHA was extracted from rat plasma with hexane at acidic condition without hydrolysis. Detection was by MS-MS monitoring of negative ion for EPA or DHA. Calculated pharmacokinetic values are mean values from 6 rats for each study drug.
as §1

[5] = 0.5% concentration in PBS, topical to cornea
[6] = 1.0% concentration in PBS, topical to cornea
[7] = oral gavage 40 mg/kg, molar dose equivalent, baseline adjusted
[8] = intravenous injection 20 mg/kg, molar dose equivalent, baseline adjusted

## CC/C=C\C/C=C\C/C=C\C/C=C\C/C=C\CCCC(=O)O.CC/C=C\C/C=C\C/C=C\C/C=C\C/C=C\CCCC(=O)O.NCCCC[C@H](NC(=O)[C@@H](N)CCCCN)C(=O)O [Compound 2, (L,L) Lysyl-lysine bis-EPA]
[1]; Day 3
  Stability by NMR (amount of sample remaining relative to original sample): 1 (1 = >95%)
[1]; Day 14
  Stability by NMR (amount of sample remaining relative to original sample): 1 (1 = >95%)
[1]; Day 30
  Stability by NMR (amount of sample remaining relative to original sample): 1 (1 = >95%)
[1]; Day 60
  Stability by NMR (amount of sample remaining relative to original sample): 1 (1 = >95%)
[2]; 0.5% concentration in PBS
  Hyperemia: increase in hyperemia (but not squinting) after the first dose
[2]; [5]
  Squinting: not squinting
[2]; 1.0% concentration in PBS
  Hyperemia: increase in hyperemia (but not squinting) after the first dose
[2]; [6]
  Squinting: not squinting
[2]; concentrations of less than 1.0%, topical to cornea, repeat dosing
  Irritation, overall conclusion: may cause some initial irritation upon the very first installation, but the animals acclimated well to repeat dosing
[2]; concentrations that showed an initial increase or all tested, last dose / final evaluation (Day 3)
  Hyperemia at last dose / final evaluation: returned to baseline levels by the final evaluation
[3]; oral gavage 40 mg/kg
  Tmax (free EPA): 30 min
[3]; oral gavage 40 mg/kg, 0 h (pre-dose), molar dose equivalent, baseline adjusted
  Plasma level of free EPA: 0.0 µg/mL
[3]; oral gavage 40 mg/kg, 0.25 h (15 min), molar dose equivalent, baseline adjusted
  Plasma level of free EPA: 0.3 µg/mL
[3]; oral gavage 40 mg/kg, 0.5 h (30 min), molar dose equivalent, baseline adjusted
  Plasma level of free EPA: 9.5 µg/mL
[3]; oral gavage 40 mg/kg, 1 h (60 min), molar dose equivalent, baseline adjusted
  Plasma level of free EPA: 3.9 µg/mL
[3]; oral gavage 40 mg/kg, 2 h (120 min), molar dose equivalent, baseline adjusted
  Plasma level of free EPA: 3.2 µg/mL
[3]; oral gavage 40 mg/kg, 4 h (240 min), molar dose equivalent, baseline adjusted
  Plasma level of free EPA: 1.5 µg/mL
[3]; oral gavage 40 mg/kg, 8 h, molar dose equivalent, baseline adjusted
  Plasma level of free EPA: 0.6 µg/mL
[3]; oral gavage 40 mg/kg, 12 h, molar dose equivalent, baseline adjusted
  Plasma level of free EPA: 0.0 µg/mL
[3]; oral gavage 40 mg/kg, 18 h, molar dose equivalent, baseline adjusted
  Plasma level of free EPA: 0.0 µg/mL
[3]; [7]
  AUC 0-1 hrs (free EPA): 4.6 µg·h/mL
  AUC 0-4 hrs (free EPA): 12.8 µg·h/mL
  AUC 0-18 hrs (free EPA): 18.3 µg·h/mL
  Cmax (free EPA): 9.5 µg/mL
[3]; oral gavage
  AUC over 18 hours (free EPA), times greater than EPA-EE: approximately 2.6 times
  AUC over 18 hours (free EPA), times greater than EPA-FFA: ~1.8 times
  Cmax (free EPA), times greater than EPA-EE: approximately 8.9 times
  Cmax (free EPA), times greater than EPA-FFA: ~7.4 times
[4]; intravenous injection 20 mg/kg
  Tmax (free EPA): 1 min
[4]; intravenous injection 20 mg/kg, 0 min, molar dose equivalent, baseline adjusted
  Plasma level of free EPA: 0.0 µg/mL
[4]; intravenous injection 20 mg/kg, 1 min, molar dose equivalent, baseline adjusted
  Plasma level of free EPA: 34.5 µg/mL
[4]; intravenous injection 20 mg/kg, 5 min, molar dose equivalent, baseline adjusted
  Plasma level of free EPA: 6.6 µg/mL
[4]; intravenous injection 20 mg/kg, 10 min, molar dose equivalent, baseline adjusted
  Plasma level of free EPA: 6.4 µg/mL
[4]; intravenous injection 20 mg/kg, 15 min, molar dose equivalent, baseline adjusted
  Plasma level of free EPA: 11.4 µg/mL
[4]; intravenous injection 20 mg/kg, 30 min, molar dose equivalent, baseline adjusted
  Plasma level of free EPA: 8.8 µg/mL
[4]; intravenous injection 20 mg/kg, 60 min, molar dose equivalent, baseline adjusted
  Plasma level of free EPA: 4.6 µg/mL
[4]; intravenous injection 20 mg/kg, 120 min, molar dose equivalent, baseline adjusted
  Plasma level of free EPA: 2.3 µg/mL
[4]; intravenous injection 20 mg/kg, 240 min, molar dose equivalent, baseline adjusted
  Plasma level of free EPA: 1.8 µg/mL
[4]; [8]
  AUC 0-1 hrs (free EPA): 8.3 µg·h/mL
  AUC 0-4 hrs (free EPA): 15.9 µg·h/mL
  Cmax (free EPA): 34.5 µg/mL
[4]; intravenous vs oral gavage
  AUC over 1 hour (free EPA), times greater than EPApo: ~13.4 times
  AUC over 1 hour (free EPA), times greater than TP-212po: approximately 1.8 times
  AUC over 4 hours (free EPA), times greater than EPApo: ~5.1 times
  AUC over 4 hours (free EPA), times greater than TP-212po: approximately 1.2 times
  Cmax (free EPA), times greater than EPA-FFApo: ~27 times
  Cmax (free EPA), times greater than TP-212po: approximately 3.6 times

## CC/C=C\C/C=C\C/C=C\C/C=C\C/C=C\C/C=C\CCC(=O)O.NCCCC[C@H](NC(=O)[C@@H](N)CCCCN)C(=O)O [Compound 3, (L,L) Lysyl lysine DHA (mono)]
[1]; Day 3
  Stability by NMR (amount of sample remaining relative to original sample): 1 (1 = >95%)
[1]; Day 14
  Stability by NMR (amount of sample remaining relative to original sample): 1 (1 = >95%)
[1]; Day 30
  Stability by NMR (amount of sample remaining relative to original sample): 1 (1 = >95%)
[1]; Day 60
  Stability by NMR (amount of sample remaining relative to original sample): 1 (1 = >95%)
[2]; 0.5% concentration in PBS
  Hyperemia: did not cause any increase in hyperemia or squinting throughout
[2]; [5]
  Squinting: did not cause any increase in hyperemia or squinting throughout
[2]; 1.0% concentration in PBS
  Hyperemia: elevated hyperemia after the first dose administration
[2]; [6]
  Squinting: no increase in squinting levels
[2]; topical to cornea four times daily for 3 days
  Concentration at which not irritating / well tolerated: less than 1.0%
